Measured values from patent US20230148599A1, “FUNGICIDAL MIXTURES CONTAINING PYRAZOLE DERIVATIVES” (FMC Corporation, priority 2020, published 2023).

Key:
Type in all cases: in vivo
Details in all cases: 50 ppm, 100 = 100% disease control, 0 = no control
Botrytis cinerea = assay: Test E: tomato Botrytis, preventive spray on tomato seedlings
Procedure, shortened: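 Preventive test: seedlings sprayed to run-off with compound in acetone/water (50/50) plus 250 ppm PEG400, inoculated one day later with B. cinerea spores. Held 48 h saturated at 20° C, then 3 days at 24° C; disease control scored visually from 0 to 100 versus controls.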

Septoria tritici = assay: Test A: wheat leaf blotch, preventive spray on wheat seedlings
Procedure, shortened: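 Preventive test: one day after spraying seedlings to run-off (concentrations in ppm; acetone/water, 250 ppm PEG400), Septoria tritici spores applied. Scored after 48 h humid incubation at 24 °C plus 17 days at 20 °C, as percent disease control versus untreated controls (100 = full control).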

[1] = system: Blumeria graminis f. sp. tritici; assay: Test C: wheat powdery mildew, preventive spray on wheat seedlings
Text: General protocol for preparing test suspensions for Tests A-F: the test compounds were first dissolved in acetone in an amount equal to 3% of the final volume and then suspended at the desired concentration (in ppm) in acetone and purified water (50/50 mix by volume) containing 250 ppm of the surfactant PEG400 (polyhydric alcohol esters). The resulting test suspensions were then used in Tests A-F.
The test suspension was sprayed to the point of run-off on wheat seedlings. The following day the seedlings were inoculated with a spore dust of Blumeria graminis f. sp. tritici, (also known as Erysiphe graminis f. sp. tritici, the causal agent of wheat powdery mildew) and incubated in a growth chamber at 20° C. for 8 days, after which time visual disease ratings were made.
A rating of 100 indicates 100% disease control and a rating of 0 indicates no disease control (relative to the controls). A dash (−) indicates the compound was not tested.

Alternaria solani = assay: Test F: tomato early blight, preventive spray on tomato seedlings
Procedure, shortened: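 Preventive test: one day after the compound spray, seedlings were inoculated with A. solani, incubated saturated at 27 °C for 48 h, then kept at 20 °C for 3 days. Test suspensions contained acetone/water 50/50 with 250 ppm PEG400 surfactant. Visual ratings run from 0 (no control) to 100 (full control).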

[2] = system: Puccinia recondita f. sp. tritici; assay: Test B: wheat leaf rust, preventive spray on wheat seedlings
Procedure, shortened: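 Preventive test: compound in acetone/water 50/50 with 250 ppm PEG400 was sprayed onto wheat seedlings one day before inoculation with leaf rust spores. After 24 h in saturated air and 7 days in a growth chamber, both at 20 °C, disease control was scored from 0 to 100 against controls.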

Phakopsora pachyrhizi = assay: Test D: Asian soybean rust, preventive spray on soybean seedlings
Procedure, shortened: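 Compounds in acetone/water (50/50) with 250 ppm PEG400, dosed in ppm, sprayed to run-off on soybean seedlings; inoculated with P. pachyrhizi spores next day. Held 24 h at 22 °C in saturated air, then 8 days at 22 °C; visual rating of disease control, 0–100, relative to untreated controls.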

Row | Structure (SMILES) | Test E disease control rating (Botrytis cinerea) | Test A disease control rating (Septoria tritici) | Test C disease control rating [1] | Test F disease control rating (Alternaria solani) | Test B disease control rating [2] | Test D disease control rating (Phakopsora pachyrhizi)
1 | Cc1nn(C)c(Nc2c(F)cccc2[N+](=O)[O-])c1-c1c(Cl)cccc1Cl [compound 53] | 98% | 100% | 98% | 98% | 100% | 0%
2 | Cc1nn(C)c(Nc2ccc(F)cc2[N+](=O)[O-])c1-c1c(Cl)cccc1Cl [compound 54] | 21% | 100% | 93% | 0% | 91% | 0%
3 | Cc1nn(C)c(Nc2c(Cl)cc(Br)cc2[N+](=O)[O-])c1-c1ccc(F)cc1F [compound 55] | 34% | 100% | 90% | 0% | 99% | 0%
4 | Cc1nn(C)c(Nc2c(F)cc(Br)cc2[N+](=O)[O-])c1-c1ccc(F)cc1F [compound 56] | 99% | 100% | 100% | 99% | 100% | 65%
5 | Cc1nn(C)c(Nc2c(F)cc(F)cc2[N+](=O)[O-])c1-c1ccc(F)cc1F [compound 58] | 99% | 100% | 99% | 99% | 100% | 36%
6 | Cc1nn(C)c(Nc2c(Cl)cc(Cl)cc2[N+](=O)[O-])c1-c1ccc(F)cc1Cl [compound 59] | 99% | 100% | 99% | 92% | 100% | 96%
7 | Cc1nn(C)c(Nc2c(F)cccc2[N+](=O)[O-])c1-c1c(F)cc(F)cc1F [compound 62] | 99% | 100% | 100% | 99% | 100% | 100%
8 | Cc1nn(C)c(Nc2c(F)cccc2[N+](=O)[O-])c1-c1c(F)cccc1F [compound 63] | 100% | 100% | 86% | 96% | 99% | 0%
9 | COc1ccc(-c2c(C)nn(C)c2Nc2c(F)cc(F)cc2[N+](=O)[O-])c(Cl)c1 [compound 64] | 98% | 100% | 98% | 99% | 100% | 97%
10 | COc1ccc(-c2c(C)nn(C)c2Nc2c(Cl)cc(Cl)cc2[N+](=O)[O-])c(Cl)c1 [compound 65] | 16% | 94% | 56% | 46% | 89% | 66%
11 | COc1ccc(-c2c(C)nn(C)c2Nc2c(Cl)cc(C)cc2[N+](=O)[O-])c(Cl)c1 [compound 66] | 98% | 100% | 98% | 96% | 100% | 97%
12 | Cc1nn(C)c(Nc2c(Cl)cc(F)cc2[N+](=O)[O-])c1-c1ccc(F)cc1F [compound 67] | 98% | 100% | 89% | 33% | 100% | 69%
13 | Cc1nn(C)c(Nc2c(F)cccc2[N+](=O)[O-])c1-c1ccc(Cl)cc1Cl [compound 69] | 100% | 100% | 97% | 99% | 100% | 77%
14 | COc1cc(F)c(-c2c(C)nn(C)c2Nc2c(F)cccc2[N+](=O)[O-])c(F)c1 [compound 70] | 99% | 100% | 99% | 99% | 100% | 84%
15 | CCn1nc(C)c(-c2ccc(F)cc2Cl)c1Nc1c(F)cccc1[N+](=O)[O-] [compound 71] | 99% | 100% | 99% | 98% | 100% | 82%
16 | COc1ccc(-c2c(C)nn(C)c2Nc2ccc(Cl)cc2[N+](=O)[O-])c(Cl)c1 [compound 74] | 99% | 99% | 81% | 85% | 86% | 74%
17 | Cc1nn(C)c(Nc2c(F)cc(F)cc2[N+](=O)[O-])c1-c1c(F)cccc1F [compound 75] | 57% | 100% | 90% | 98% | 99% | 0%
18 | Cc1nn(C)c(Nc2c(Cl)cc(F)cc2[N+](=O)[O-])c1-c1c(F)cccc1F [compound 76] | 87% | 100% | 95% | 0% | 99% | 25%
19 | Cc1nn(C)c(Nc2c(Cl)cccc2[N+](=O)[O-])c1-c1c(F)cccc1F [compound 77] | 72% | 100% | 95% | 9% | 100% | 73%
20 | Cc1nn(C)c(Nc2ccc(Cl)cc2[N+](=O)[O-])c1-c1ccc(F)cc1F [compound 78] | 68% | 100% | 95% | 0% | 89% | 0%
21 | Cc1nn(C)c(Nc2c(Cl)cccc2[N+](=O)[O-])c1-c1ccc(F)cc1F [compound 79] | 98% | 100% | 91% | 0% | 100% | 44%
22 | COc1cc(Cl)c(Nc2c(-c3ccc(F)cc3Cl)c(C)nn2C)c([N+](=O)[O-])c1 [compound 80] | 95% | 100% | 97% | 98% | 100% | 50%
23 | COc1ccc(-c2c(C)nn(C)c2Nc2c(F)cc(Cl)cc2[N+](=O)[O-])c(Cl)c1 [compound 81] | 95% | 100% | 89% | 99% | 99% | 0%
24 | COc1cc(F)c(-c2c(C)nn(C)c2Nc2c(Cl)cc(Cl)cc2[N+](=O)[O-])c(F)c1 [compound 82] | 96% | 100% | 58% | 97% | 100% | 59%
25 | COc1cc(F)c(-c2c(C)nn(C)c2Nc2ccc(F)cc2[N+](=O)[O-])c(F)c1 [compound 83] | 98% | 99% | 99% | 99% | 91% | 0%
